The values below come from US9428512B2, “Compounds” (GlaxoSmithKline LLC, priority 2012, dated 2016).

Test [1] has as its system IFN-α induction in human whole blood. As to the kind of experiment: Induction of Interferon-α using fresh human whole blood (WB). In kind it is cell-based. The following applies: three donors, overnight incubation, cytokine release as % of 2 μM resiquimod control, read-out: mean pEC50 for IFN-α (converted). On the procedure:
(§1) Assay for the Induction of Interferon-α and TNF-α Using Fresh Human Whole Blood (WB)
(§2) Compounds were prepared at 100× required concentration in DMSO in flat-bottom microtitre plates at a volume of 1.5 μL. Columns 1-10 contained a 1 in 4 serial dilution of the test compound. Included on each plate was a serial dilution of the TLR7/8 agonist resiquimod as a standard and Column 11 contained 1.5 μl of 200 μM resiquimod (giving a 2 μM final concentration, used to define the approximate maximal response to resiquimod). Each compound was assayed in duplicate for each donor.
(§3) Blood samples from three human donors were collected into sodium heparin (10 U/ml). 150 μl of whole Blood was dispensed into Col 1 to 11 of assay plates containing 1.5 μl of test compound or standard in DMSO. Plates were placed in an incubator overnight (37° C., 95% air, 5% CO2). Following the overnight incubation, plates were removed from the incubator & mixed on an orbital shaker for approximately 1 minute. 100 μl of 0.9% saline was added to each well and the plates mixed again on an orbital shaker. Plates were then centrifuged (2500 rpm, 10 mins), after which a sample of plasma was removed using a Biomek FX and assayed for both IFN-α and TNF-α using the MSD (Mesoscale Discovery) electrochemiluminescence assay platform. The IFN-α assay was carried out similarly to that described above. The TNF-α assay was carried out as per kit instructions (Cat No K111BHB).
(§4) Cytokine released was expressed as a percentage of the 2 μM resiquimod control (column 11). This percentage was plotted against compound concentration and the pEC50 for the response determined by non-linear least squares curve fitting. For the IFN-α responses, generally a 4 parameter logistic model was selected. For the TNF-α responses where a clear maximum response was obtained (i.e. a well defined plateau in the response was observed) then a 4 parameter model was generally used. If the upper asymptote of the curve wasn't well defined then the curve fitting was generally constrained to a maximal response of 100% (i.e. to the response to 2 μM resiquimod) or to the response of the highest concentration tested if this was greater than the resiquimod response. Some curves were bell shaped for one or both cytokines and the cytokine data on the down slope of the bell shaped response (i.e. concentrations above those giving the maximal response) were generally excluded from the fit, usually with the exception of the concentration immediately above the peak response. Curve fitting thus concentrated on the up slope of the dose response curve.

The test system of test [2] is TNF-α induction in human whole blood. As to the kind of experiment: Induction of TNF-α using fresh human whole blood (WB). In kind it is cell-based. The settings on record: three donors, overnight incubation, cytokine release as % of 2 μM resiquimod control, read-out: mean pEC50 for TNF-α (converted). As to the method: as §1, §2, §3, §4

In the case of `CCCCc1nc(N)c2[nH]cc(CCCCCN3CCNCC3)c2n1` [Example 1, 2-Butyl-7-(5-(piperazin-1-yl)pentyl)-5H-pyrrolo[3,2-d]pyrimidin-4-amine], the EC50 in test [1] is no more than 1.58 µM; in test [2] it was no less than 5.01 µM.

In the case of `CCCCc1nc(N)c2[nH]cc(CCCCCN3CCN(C(C)C)CC3)c2n1` [Example 2, 2-Butyl-7-(5-(4-isopropylpiperazin-1-yl)pentyl)-5H-pyrrolo[3,2-d]pyrimidin-4-amine], the figures for the EC50 in test [1] and in test [2] were no more than 1.58 µM and no less than 5.01 µM, respectively.

`CCCCc1nc(N)c2[nH]c(C)c(CCCCCN3CCN(C(C)C)CC3)c2n1` [Example 3, 2-Butyl-7-(5-(4-isopropylpiperazin-1-yl)pentyl)-6-methyl-5H-pyrrolo[3,2-d]pyrimidin-4-amine]: the EC50 in test [1] is no more than 1.58 µM; in test [2], no less than 5.01 µM.

Turning to `CCCCc1nc(N)c2[nH]c(C)c(CCCCCN3CCN(CC)CC3)c2n1` [Example 4, 2-Butyl-7-(5-(4-ethylpiperazin-1-yl)pentyl)-6-methyl-5H-pyrrolo[3,2-d]pyrimidin-4-amine], the EC50 was no more than 1.58 µM in test [1] and no less than 5.01 µM in test [2].

For the compound `CCCCc1nc(N)c2[nH]cc(CCCN3CCNCC3)c2n1` [Example 5, 2-Butyl-7-(3-(piperazin-1-yl)propyl)-5H-pyrrolo[3,2-d]pyrimidin-4-amine], the EC50 in test [1] was no more than 1.58 µM; in test [2] it was no less than 5.01 µM.

As for `CCCCc1nc(N)c2[nH]cc(CCCN3CCN(CC)CC3)c2n1` [Example 6, 2-Butyl-7-(3-(4-ethylpiperazin-1-yl)propyl)-5H-pyrrolo[3,2-d]pyrimidin-4-amine], the EC50 in test [1] is no more than 1.58 µM; in test [2] it was no less than 5.01 µM.

Regarding `CCCCc1nc(N)c2[nH]cc(CCCCN3CCN(C(C)C)CC3)c2n1` [Example 7], the results for the EC50 in test [1] and in test [2] were no more than 1.58 µM and no less than 5.01 µM, respectively.
